Results as given in publication PMC12006171, “Marsupial cathelicidins: characterization, antimicrobial activity and evolution in this unique mammalian lineage” (Frontiers in Immunology, 2025).
Like-named read-outs stand apart in the source and are kept apart here.

What was measured:
[1] = system: six bacteria (S. aureus, E. coli, P. aeruginosa; ATCC and clinical isolate); assay type: cell-based; settings: synthesized mature peptide
Protocol: (§1) Antimicrobial testing of 78 cathelicidin MPs was performed in two phases as outlined in Figure 1 . In phase I, 40 peptides (27 extant and 13 ancestral) were selected for testing based on rank (outlined above) and similarity to published marsupial cathelicidins with known antimicrobial activity ([33], [41]–[43]). These peptides were tested against nine bacteria (Staphylococcus aureus ATCC 29213 and clinical isolate, Escherichia coli ATCC 25922 and clinical isolate, Pseudomonas aeruginosa ATCC 27853 and clinical isolate, Streptococcus agalactiae ATCC 12386 and clinical isolate, Streptococcus pneumoniae ATCC 49619) and three fungi (Candida krusei ATCC 6258, Candida parapsilosis ATCC 22019, and Candida albicans clinical isolate). Details regarding these strains are available in Supplementary Table 4 . The antimicrobial activity of cathelicidins was determined as the minimum inhibitory concentration (MIC), which was the lowest concentration of cathelicidin that prevented visible bacterial or fungal growth, relative to the negative control. […] Minimum bactericidal concentration (MBC) and/or minimum fungicidal concentration (MFC) was conducted to determine microbicidal versus static action. Activity against S. aureus ATCC, E. coli ATCC, and Pseudomonas aeruginosa ATCC 27853 was examined in the presence of divalent cations to determine the impact of inhibitors.
(§2) In phase II, the remaining 38 peptides (37 extant and one ancestral) were tested against six bacteria (S. aureus ATCC and clinical isolate, E. coli ATCC and clinical isolate, and P. aeruginosa ATCC and clinical isolate). […] No further testing on phase II peptides was performed. Detailed methods for all assays are provided in subsequent sections.
(§3) Antimicrobial activity was determined using a broth microdilution susceptibility assay in 96 well polypropylene plates according to Clinical Laboratory Standards Institute guidelines M07-A and M26A as described previously ([33], [42], [43]). The bacterial and fungal isolates from humans and animals used in this study are outlined in Supplementary Table 4 . Only yeasts were included in the panel of fungi as they have been used in the susceptibility testing of eutherian ([3], [81]–[83]) and other marsupial cathelicidins previously ([33], [42], [43]). Cathelicidin mature peptides were solubilized in DMSO and serially diluted in duplicate from 128-0.25μg/mL in a final volume of 100µL. For bacteria, cathelicidins were diluted in Mueller Hinton Broth (MHB) with or without 10% lysed horse blood, and with (MH II B) or without (MHB) calcium and magnesium cations. For fungi, cathelicidins were diluted in Roswell Park Memorial Institute medium (RPMI)-1640 MOPS. Ampicillin or tetracycline were included as a positive control for Gram-positive and -negative bacteria respectively, while amphotericin B was used for fungi. A media-only negative control and growth control (no cathelicidin) were also included on each plate. Bacteria were sub-cultured on Muller Hinton agar (MHA) or sheep blood agar (BA), and fungi on Sabouraud dextrose agar (SAB), 20–24 hours prior to the test. Colonies were suspended in saline, the concentration adjusted to a 0.5 McFarland standard, and then diluted in media to a concentration of 1.0 x 10^6 cells/mL. Then, 100μL was added to each well of the cathelicidin dilution plate, giving a final inoculum density of 5 x 10^5 CFU/mL and cathelicidin concentration of 64-0.125μg/mL. Colony counts were performed on MHA/BA/SAB to confirm inoculum density. All plates were incubated at 35°C for 20–24 hours, depending on the strain.
(§4) Colonies were counted and compared to the colony count of the starting inoculum.

[2] = system: three fungi (Candida krusei, Candida parapsilosis, Candida albicans); parameters: method as in 4 sources, ref Peel et al 2016 ||| ref Peel et al 2021 ||| ref Wang et al 2011 ||| ref Peel et al 2017; settings: cited from earlier work
[3] = system: six bacteria (S. aureus, E. coli, P. aeruginosa; ATCC and clinical isolate); parameters: method as in 4 sources, ref Peel et al 2016 ||| ref Peel et al 2021 ||| ref Wang et al 2011 ||| ref Peel et al 2017; settings: cited from earlier work
[4] = system: Pseudomonas aeruginosa clinical isolate - animal; assay: microbe, parasite or virus in culture; assay type: cell-based; settings: clinical isolate; µM equivalent of Table 3; read-out: MIC P. aeruginosa
Protocol: as §1, §2, §3, §4

[5] = system: Escherichia coli ATCC 25922; assay: microbe, parasite or virus in culture; assay type: cell-based; settings: µM equivalent of Table 3; for MBC E. coli ATCC: value in brackets
Protocol: as §1, §2, §3, §4

[6] = system: Staphylococcus aureus ATCC 29213; assay: microbe, parasite or virus in culture; assay type: cell-based; settings: µM equivalent of Table 3
Protocol: as §1, §2, §3, §4

[7] = system: Escherichia coli clinical isolate - animal; assay: microbe, parasite or virus in culture; assay type: cell-based; settings: clinical isolate, µM equivalent of Table 3
Protocol: as §1, §2, §3, §4

[8] = system: Pseudomonas aeruginosa ATCC 27853; assay: microbe, parasite or virus in culture; assay type: cell-based; settings: µM equivalent of Table 3; read-out: MIC P. aeruginosa ATCC
Protocol: as §1, §2, §3, §4

[9] = system: Staphylococcus aureus clinical isolate - animal; assay: microbe, parasite or virus in culture; assay type: cell-based; settings: clinical isolate, µM equivalent of Table 3
Protocol: as §1, §2, §3, §4

[10] = broth microdilution screening, phase I or II, Y/N summary over the bacteria tested
[11] = mature peptide, Y/N summary from earlier study, ref Peel et al 2016
[12] = mature peptide, Y/N summary from earlier study, ref Peel et al 2017
[13] = mature peptide, Y/N summary from earlier study, ref Peel et al 2021
[14] = mature peptide (MP), Y/N summary, ref Peel et al 2017
[15] = mature peptide, Y/N summary from earlier study, ref Wang et al 2011

FRKLRNIFSRGRDDKE [MagiCath4]
Antibacterial (MIC <64ug/mL) [1, 10]: N (Antibacterial (MIC <64ug/mL))

GEKVKTRFIAAIKKLIDTFLP [MaruCath8]
Antibacterial (MIC <64ug/mL) [1, 10]: N (Antibacterial (MIC <64ug/mL))

KEKATKFRNSIRRRVNGLKIGAADRVPGHYLA [MagiCath5]
Antibacterial (MIC <64ug/mL) [1, 10]: N (Antibacterial (MIC <64ug/mL))

GSTSSPTVRF [LahiCath2]
Antibacterial (MIC <64ug/mL) [1, 10]: N (Antibacterial (MIC <64ug/mL))

TPELFRSRRSPLPGRKKGSKRPKPGSYSVIALGKPGLKKAPYMEAL [LahiCath1]
Antibacterial (MIC <64ug/mL) [1, 10]: N (Antibacterial (MIC <64ug/mL))

TFKRKNGSRKNGHRPGGYSLIALGNKKVLKAPYMESI [SahaCath2]
Antifungal (MIC <64ug/mL) [2, 11]: N (Peel et al 2016) (Antifungal (MIC <64ug/mL))
Antibacterial (MIC <64ug/mL) [3, 11]: N (Peel et al 2016) (Antibacterial (MIC <64ug/mL))

KRGLWESLKRKVTKLGDDIRNTLRNFKIKFPVPRQG [MaeuCath7]
Antifungal (MIC <64ug/mL) [2, 12]: N (Peel et al 2017) (Antifungal (MIC <64ug/mL))
Antibacterial (MIC <64ug/mL) [3, 12]: Y (Peel et al 2017) (Antibacterial (MIC <64ug/mL))

KRGFGDSVKKTGTKLKNSIRRRVTGLTVGAAVLRPG [MaruCath1p]
Antibacterial (MIC <64ug/mL) [1, 10]: N (Antibacterial (MIC <64ug/mL))

PGRKKGSKRHKPGSYSVIALGKPGVKKAPYMEAL [MagiCath2]
Antibacterial (MIC <64ug/mL) [1, 10]: N (Antibacterial (MIC <64ug/mL))

RTLLRRVGEKVKTRFIAALEKLIDTFLP [MagiCath3, predicted eastern grey kangaroo cathelicidin mature peptide]
Antibacterial (MIC <64ug/mL) [1, 10]: Y (Antibacterial (MIC <64ug/mL))
MIC [4]: >14.3 µM
MBC E. coli ATCC [5]: > 14.3 µM
MIC E. coli ATCC [5]: 14.3 µM
MIC ([6]; read-out: MIC S. aureus ATCC): >14.3 µM
MIC [7]: >14.3 µM
MIC [8]: >14.3 µM
MIC ([9]; read-out: MIC S. aureus): >14.3 µM

LFPRRRKGSNKPGKYSVLFAAKPSVGKTPHILTI [PhciCath1]
Antifungal (MIC <64ug/mL) [2, 13]: N (Peel et al 2021) (Antifungal (MIC <64ug/mL))
Antibacterial (MIC <64ug/mL) [3, 13]: N (Peel et al 2021) (Antibacterial (MIC <64ug/mL))

SKTKRRSLLKRLGDGIRGFWNGFRGRK [ModoCath4]
Antifungal (MIC <64ug/mL) [2, 14]: Y (Peel et al 2017) (Antifungal (MIC <64ug/mL))
Antibacterial (MIC <64ug/mL) [3, 14]: Y (Peel et al 2017) (Antibacterial (MIC <64ug/mL))

NFIHQKYRILLDKYRKLQDIFSGSGDKV [PhciCath2]
Antifungal (MIC <64ug/mL) [2, 13]: N (Peel et al 2021) (Antifungal (MIC <64ug/mL))
Antibacterial (MIC <64ug/mL) [3, 13]: N (Peel et al 2021) (Antibacterial (MIC <64ug/mL))

GIKHILFMAKTKLPRATCTAEIKENCDRKK [SahaCath1]
Antifungal (MIC <64ug/mL) [2, 11]: N (Peel et al 2016) (Antifungal (MIC <64ug/mL))
Antibacterial (MIC <64ug/mL) [3, 11]: N (Peel et al 2016) (Antibacterial (MIC <64ug/mL))

PRRKKGPKKDNYKPGGYSLIALGKPDIQKAPYMEAL [MaruCath7]
Antibacterial (MIC <64ug/mL) [1, 10]: N (Antibacterial (MIC <64ug/mL))

PKQKNGSKNRRFRIGGYTMISMKQPRVQKAPYMEAL [ModoCath9]
Antifungal (MIC <64ug/mL) [2, 14]: N (Peel et al 2017) (Antifungal (MIC <64ug/mL))
Antibacterial (MIC <64ug/mL) [3, 14]: N (Peel et al 2017) (Antibacterial (MIC <64ug/mL))

TLTQAHCPYFLRKKPEGEMATGGRPQETPKLLGAL [ModoCath10]
Antifungal (MIC <64ug/mL) [2, 14]: N (Peel et al 2017) (Antifungal (MIC <64ug/mL))
Antibacterial (MIC <64ug/mL) [3, 14]: N (Peel et al 2017) (Antibacterial (MIC <64ug/mL))

KRMGIFHLFWAGLRKLGNLIKNKIQQGIENFLG [SahaCath3]
Antifungal (MIC <64ug/mL) [2, 11]: Y (Peel et al 2016) (Antifungal (MIC <64ug/mL))
Antibacterial (MIC <64ug/mL) [3, 11]: N (Peel et al 2016) (Antibacterial (MIC <64ug/mL))

KKFLKSVIKEAISKGIPKGIQAVNKLIKEKKEGQKHKP [MAP2, marsupial ancestral peptide, predicted by ANCESCON and GASP, synthesized]
Antibacterial (MIC <64ug/mL) ([1]; antimicrobial screening Phase II, Y/N summary over bacteria tested, broth microdilution): N (Antibacterial (MIC <64ug/mL))

GEKVKTRFIAAIEKLIDTFLP [MaeuCath3]
Antifungal (MIC <64ug/mL) [2, 12]: N (Peel et al 2017) (Antifungal (MIC <64ug/mL))
Antibacterial (MIC <64ug/mL) [3, 12]: N (Peel et al 2017) (Antibacterial (MIC <64ug/mL))

KKTRTKPKNSIRRRIKGFGIGTIILVPL [MagiCath6, predicted eastern grey kangaroo cathelicidin mature peptide]
Antibacterial (MIC <64ug/mL) [1, 10]: Y (Antibacterial (MIC <64ug/mL))
MIC [4]: >17.6 µM
MBC E. coli ATCC [5]: 8.8 µM
MIC E. coli ATCC [5]: 8.8 µM
MBC S. aureus ATCC ([6]; value in brackets): 17.6 µM
MIC S. aureus ATCC [6]: 17.6 µM
MBC E. coli ([7]; value in brackets): 17.6 µM
MIC E. coli [7]: 17.6 µM
MIC [8]: >17.6 µM
MBC S. aureus ([9]; value in brackets): 17.6 µM
MIC S. aureus [9]: 17.6 µM

SVPGTRAQSGTTSPGSGSRRVARSRG [OranCath6]
Antifungal (MIC <64ug/mL) [2, 14]: N (Peel et al 2017) (Antifungal (MIC <64ug/mL))
Antibacterial (MIC <64ug/mL) [3, 14]: N (Peel et al 2017) (Antibacterial (MIC <64ug/mL))

PGRKKGSKRHKPGSYSVIALGKPGVKKSPYMEAL [MaeuCath8]
Antifungal (MIC <64ug/mL) [2, 12]: N (Peel et al 2017) (Antifungal (MIC <64ug/mL))
Antibacterial (MIC <64ug/mL) [3, 12]: N (Peel et al 2017) (Antibacterial (MIC <64ug/mL))

KVKRGLWDTVKRKVTNLRNSIRNRATNFKLGG [MagiCath1]
Antibacterial (MIC <64ug/mL) [1, 10]: N (Antibacterial (MIC <64ug/mL))

KRGLWESLKRKATKLGDDIRNTLRNFKIKFPVPRQG [MaeuCath2*]
Antifungal (MIC <64ug/mL) [2, 15]: Y (Wang et al 2011) (Antifungal (MIC <64ug/mL))
Antibacterial (MIC <64ug/mL) [3, 15]: Y (Wang et al 2011) (Antibacterial (MIC <64ug/mL))

ASSGIIDTSSLPPKIRQIYNQAVYDTLVGILRNF [PhciCath6]
Antifungal (MIC <64ug/mL) [2, 13]: N (Peel et al 2021) (Antifungal (MIC <64ug/mL))
Antibacterial (MIC <64ug/mL) [3, 13]: N (Peel et al 2021) (Antibacterial (MIC <64ug/mL))

PIRTKRRWKLIKKGGKIVKDLLTKNNIIILPGGNE [TaacCath1]
Antifungal (MIC <64ug/mL) [2, 14]: N (Peel et al 2017) (Antifungal (MIC <64ug/mL))
Antibacterial (MIC <64ug/mL) [3, 14]: Y (Peel et al 2017) (Antibacterial (MIC <64ug/mL))
